Values after ≈ are worked out from the molar mass of the structure shown. One block for each compound: values may come before it.
Assays:
Assay in all cases: ≥ marks a high value that may be exact or a test limit, other limits are often not marked, values filed in µg/mL are converted to µM
[1] = system: Pseudomonas aeruginosa KCTC 1637
[2] = system: Staphylococcus aureus KCTC 1621
[3] = system: Bacillus subtilis KCTC 3068
[4] = system: Salmonella typhimurium KCTC 1926
[5] = system: Staphylococcus epidermidis KCTC 1917
[6] = system: Escherichia coli DSM 1103
[7] = system: Pseudomonas aeruginosa DSM 1117
[8] = system: Escherichia coli KCTC 1682
[9] = system: Staphylococcus aureus DSM 1104
[10] = system: Staphylococcus epidermidis DSM 1798
[11] = system: Cryptococcus neoformans ATCC 32264
[12] = system: Escherichia coli ATCC 25922
Salmonella sp. = system: Salmonella sp.
Escherichia coli = system: Escherichia coli
[13] = system: Staphylococcus aureus ATCC 43300
[14] = system: Pseudomonas aeruginosa ATCC 27853
[15] = system: Candida albicans ATCC 10231
Yersinia enterocolitica = system: Yersinia enterocolitica
[16] = system: Staphylococcus aureus ATCC 29213
[17] = system: Salmonella enterica subsp. enterica serovar Enteritidis
[18] = system: Kocuria rhizophila DSM 348
[19] = system: Bacillus subtilis DSM 347
[20] = system: Franconibacter helveticus DSM 18396
[21] = system: Escherichia coli DH5alpha
[22] = system: Escherichia coli NEB5alpha
[23] = system: Bacillus subtilis ATCC 6051
[24] = system: Staphylococcus epidermidis ATCC 35984
[25] = system: Staphylococcus aureus ATCC 33591
[26] = system: Staphylococcus aureus ATCC 25923
Acinetobacter baumannii = system: Acinetobacter baumannii
Staphylococcus aureus = system: Staphylococcus aureus
Enterococcus faecalis = system: Enterococcus faecalis
Pseudomonas aeruginosa 1 = system: Pseudomonas aeruginosa 1
Pseudomonas aeruginosa = system: Pseudomonas aeruginosa

MIC [11]: 25 µM (≈ 34.6 µg/mL)
MIC [12]: 18.1 µM (≈ 25 µg/mL)
MIC (Salmonella sp.): 18.1 µM (≈ 25 µg/mL)
MIC (Escherichia coli): 9.03 µM (≈ 12.5 µg/mL)
MIC [13]: 18.1 µM (≈ 25 µg/mL)
MIC [14]: > 50 µM
MIC [15]: 10 µM (≈ 13.8 µg/mL)
MIC (Yersinia enterocolitica): 18.1 µM (≈ 25 µg/mL)
MIC [16]: 36.1 µM (≈ 50 µg/mL)
MIC [17]: 18.1 µM (≈ 25 µg/mL)
Structure (SMILES): CC[C@H](C)[C@H](NC(=O)[C@H](CCC(N)=O)NC(=O)[C@@H](N)CCCN=C(N)N)C(=O)N[C@@H](CCCN=C(N)N)C(=O)N[C@@H](CCCN=C(N)N)C(=O)N[C@@H](Cc1c[nH]c2ccccc12)C(=O)N[C@@H](Cc1c[nH]c2ccccc12)C(=O)N[C@@H](CCC(N)=O)C(=O)N[C@@H](CCCN=C(N)N)C(N)=O [RQIRRWWQR]

MIC [18]: ≥ 256 µM
MIC [19]: ≥ 32 µM
MIC [20]: ≥ 128 µM
MIC [21]: ≥ 128 µM
Structure (SMILES): CC[C@H](C)[C@H](NC(=O)CN)C(=O)NCC(=O)N[C@@H](CCCCN)C(=O)N[C@@H](Cc1ccccc1)C(=O)N[C@@H](C)C(=O)N[C@@H](Cc1cnc[nH]1)C(=O)N[C@@H](CO)C(=O)N[C@@H](C)C(=O)N[C@@H](CCCCN)C(=O)N[C@@H](CCCCN)C(=O)N[C@@H](Cc1ccccc1)C(=O)NCC(=O)N[C@@H](CCCCN)C(=O)N[C@@H](C)C(=O)N[C@@H](Cc1ccccc1)C(=O)N[C@H](C(=O)NCC(=O)N[C@@H](CCC(=O)O)C(=O)N[C@H](C(=O)N[C@@H](CCSC)C(=O)N[C@@H](CC(N)=O)C(=O)N[C@@H](CO)C(=O)O)[C@@H](C)CC)C(C)C [GIGKFAHSAKKFGKAFVGEIMNS]

MIC [22]: ≥ 500 µM
MIC [23]: ≥ 500 µM
Structure (SMILES): CC[C@H](C)[C@H](NC(=O)[C@H](C)NC(=O)CNC(=O)[C@H](CCCCN)NC(=O)[C@H](CCC(=O)O)NC(=O)[C@H](CCC(=O)O)NC(=O)[C@H](CC(=O)O)NC(=O)[C@H](CCC(=O)O)NC(=O)[C@H](CC(=O)O)NC(=O)[C@H](CCCN=C(N)N)NC(=O)CNC(=O)[C@H](CCC(N)=O)NC(=O)[C@H](CC(C)C)NC(=O)[C@H](CCCCN)NC(=O)[C@H](CC(=O)O)NC(=O)[C@@H](NC(=O)[C@@H](NC(=O)[C@H](Cc1cnc[nH]1)NC(=O)[C@@H](N)CCCN=C(N)N)[C@@H](C)CC)C(C)C)C(=O)N[C@H](C(=O)N[C@@H](CCCCN)C(=O)N[C@H](C(=O)N[C@@H](CCCCN)C(=O)NCC(=O)NCC(=O)N[C@@H](CC(C)C)C(=O)O)C(C)C)C(C)C [RHIVDKLQGRDEDEEKGAIVKVKGGL]

MIC [18]: ≥ 256 µM
MIC [19]: 16 µM (≈ 38.8 µg/mL)
MIC [20]: ≥ 64 µM
MIC [21]: ≥ 128 µM
Structure (SMILES): CC[C@H](C)[C@H](NC(=O)CN)C(=O)NCC(=O)N[C@@H](CCCCN)C(=O)N[C@@H](Cc1ccccc1)C(=O)N[C@@H](CC(C)C)C(=O)N[C@@H](Cc1cnc[nH]1)C(=O)N[C@@H](CO)C(=O)N[C@@H](C)C(=O)N[C@@H](CCCCN)C(=O)N[C@@H](CCCCN)C(=O)N[C@@H](Cc1ccccc1)C(=O)NCC(=O)N[C@@H](CCCCN)C(=O)N[C@@H](C)C(=O)N[C@@H](Cc1ccccc1)C(=O)N[C@H](C(=O)NCC(=O)N[C@@H](CCC(=O)O)C(=O)N[C@@H](C)C(=O)N[C@@H](CCSC)C(=O)N[C@@H](CC(N)=O)C(=O)N[C@@H](CO)C(=O)O)C(C)C [GIGKFLHSAKKFGKAFVGEAMNS]

MIC [11]: ≥ 50 µM
MIC (Salmonella sp.): ≥ 50 µM
MIC (Escherichia coli): 25 µM (≈ 58.9 µg/mL)
MIC [13]: > 50 µM
MIC [14]: > 50 µM
MIC [25]: 16 µM (≈ 37.7 µg/mL)
MIC [15]: 100 µM (≈ 236 µg/mL)
MIC (Yersinia enterocolitica): ≥ 50 µM
MIC [16]: > 50 µM
MIC [17]: 25 µM (≈ 58.9 µg/mL)
Structure (SMILES): CC[C@H](C)[C@H](NC(=O)[C@H](CCCNC(=N)N)NC(=O)[C@@H](NC(=O)[C@H](CCC(N)=O)NC(=O)[C@@H](N)CCCNC(=N)N)[C@@H](C)CC)C(=O)N[C@@H](Cc1c[nH]c2ccccc12)C(=O)N[C@@H](Cc1ccccc1)C(=O)N[C@@H](CCC(N)=O)C(=O)N[C@@H](CC(N)=O)C(=O)N[C@@H](CCCNC(=N)N)C(=O)N[C@@H](CCCNC(=N)N)C(=O)N[C@@H](CCSC)C(=O)N[C@@H](CCCNC(=N)N)C(=O)N[C@@H](Cc1c[nH]c2ccccc12)C(=O)N[C@@H](CCCNC(=N)N)C(=O)N[C@@H](CCCNC(=N)N)C(N)=O [RQIRIWFQNRRMRWRR]

The remaining lines, values behind:

Structure (SMILES): NCCCC[C@H](NC(=O)[C@H](CCCN=C(N)N)NC(=O)CN)C(=O)N[C@@H](CCCCN)C(=O)N[C@@H](CCCN=C(N)N)C(=O)N[C@@H](CCCN=C(N)N)C(=O)N[C@@H](CCC(N)=O)C(=O)N[C@@H](CCCN=C(N)N)C(=O)N[C@@H](CCCN=C(N)N)C(=O)N[C@@H](CCCN=C(N)N)C(=O)N1CCC[C@H]1C(=O)N1CCC[C@H]1C(=O)N[C@@H](CCC(N)=O)C(=O)O [GRKKRRQRRRPPQ]
MIC [1]: 4 µM (≈ 6.88 µg/mL)
MIC [2]: 4 µM (≈ 6.88 µg/mL)
MIC [3]: 4 µM (≈ 6.88 µg/mL)
MIC [4]: 8 µM (≈ 13.8 µg/mL)
MIC [5]: 4 µM (≈ 6.88 µg/mL)
MIC [6]: ≥ 128 µM
MIC [7]: ≥ 128 µM
MIC [8]: 2 µM (≈ 3.44 µg/mL)
MIC [9]: ≥ 128 µM
MIC [10]: ≥ 128 µM

Structure (SMILES): CC(C)C[C@H](NC(=O)[C@H](C)NC(=O)[C@H](CCCN=C(N)N)NC(=O)[C@H](CC(C)C)NC(=O)[C@H](C)NC(=O)[C@H](CC(C)C)NC(=O)[C@H](CCCN=C(N)N)NC(=O)[C@H](CC(C)C)NC(=O)[C@H](C)NC(=O)[C@H](CC(C)C)NC(=O)[C@@H](N)CCCN=C(N)N)C(=O)N[C@@H](CCCN=C(N)N)C(=O)N[C@@H](C)C(=O)N[C@@H](C)C(=O)N[C@@H](CC(C)C)C(=O)N[C@@H](CCCN=C(N)N)C(=O)N[C@@H](CC(C)C)C(=O)N[C@@H](C)C(N)=O [RLALRLALRALRAALRLA]
MIC [6]: ≥ 57 µM
MIC [7]: ≥ 115 µM
MIC [9]: 29 µM (≈ 58.5 µg/mL)
MIC [10]: 4 µM (≈ 8.07 µg/mL)

Structure (SMILES): CC[C@H](C)[C@H](N)C(=O)N[C@H](C(=O)N[C@@H](CC(C)C)C(=O)N[C@@H](CC(N)=O)C(=O)N1CCC[C@H]1C(=O)N[C@@H](Cc1c[nH]c2ccccc12)C(=O)N[C@@H](CC(=O)O)C(=O)N[C@@H](CCC(N)=O)C(=O)N[C@H](C(=O)N[C@@H](CCCCN)C(=O)O)C(C)C)C(C)C [IVLNPWDQVK]
MIC [12]: 1360 µM (≈ 1650 µg/mL)
MIC [22]: ≥ 681 µM
MIC [23]: ≥ 1360 µM

Structure (SMILES): CC(C)C[C@H](N)C(=O)N[C@@H](CCCCN)C(=O)N[C@@H](CCCCN)C(=O)N[C@@H](C)C(=O)N[C@@H](CCCCN)C(=O)N[C@@H](CCCCN)C(=O)N[C@@H](Cc1ccccc1)C(=O)NCC(=O)N[C@@H](CCCCN)C(=O)N[C@@H](C)C(=O)N[C@@H](Cc1ccccc1)C(=O)N[C@H](C(N)=O)C(C)C [LKKAKKFGKAFV]
MIC [14]: 265 µM (≈ 362 µg/mL)
MIC [24]: ≥ 375 µM
MIC [25]: ≥ 375 µM
MIC [26]: > 375 µM

Structure (SMILES): CC(C)C[C@H](NC(=O)[C@H](CC(C)C)NC(=O)[C@H](CCCCN)NC(=O)[C@H](CCCCN)NC(=O)[C@H](CC(C)C)NC(=O)[C@H](CCCCN)NC(=O)[C@H](CCCCN)NC(=O)[C@H](CC(C)C)NC(=O)[C@H](CC(C)C)NC(=O)[C@H](CCCCN)NC(=O)[C@H](CCCN=C(N)N)NC(=O)[C@H](Cc1c[nH]c2ccccc12)NC(=O)[C@H](CCCCN)NC(=O)[C@@H](N)CCCCN)C(N)=O [KKWRKLLKKLKKLL]
MIC (Acinetobacter baumannii): 0.548 µM (≈ 0.999 µg/mL)
MIC (Staphylococcus aureus): 1.1 µM (≈ 2 µg/mL)
MIC (Enterococcus faecalis): 0.658 µM (≈ 1.2 µg/mL)
MIC (Pseudomonas aeruginosa 1): 1.55 µM (≈ 2.83 µg/mL)
MIC (Pseudomonas aeruginosa): 0.548 µM (≈ 0.999 µg/mL)

— DBAASP
